“Also recorded” adds a separate entry of the source.
Experiments:
[1] = tested on: rat hippocampal neurons; assay: Effect of dye loading on action potential firing, whole-cell patch clamp without imaging; format: cell-based; settings: neurons with or without 1 μM dye, n=12 and 11
Procedure: To test if loading of BeRST 1 onto the membrane of neurons has any effect on their action potential firing, ten 500 ms current steps were injected into neurons, in increments of […]. The first action potential from each sweep was analyzed in Clampfit 10 software (Molecular Devices) to give amplitude and kinetic data. The cell capacitance determined by the Clampex software during recording. To evoke single action potentials for electrophysiological and imaging comparisons, short (10 ms) current injections were applied which were 2× the threshold required to evoke a single action potential. Analysis of action potentials was performed using spike detection algorithms in the Clampfit 10 software.

[2] = In vitro cross excitation in aqueous buffer (emission scans with differing excitation wavelengths); format: physicochemical; settings: emission 680 nm
Procedure: FIG. 12A-C provides for in vitro cross excitation of BeRST 1 and BR. Emission scans of (A) BeRST 1 and (B) BR in aqueous buffer (50 mM TBS, pH 7.5, 0.1% SDS) with differing excitation wavelengths. (C) Relative fluorescence emission intensity at 680 nm vs. excitation wavelength for BeRST 1 (black bars) and BR (grey bars).
Stock solutions of BR and BeRST 1 were prepared in DMSO (1.0-10 mM) and diluted with TBS (50 mM Tris-HCl, pH 7.5, 0.15 M NaCl) solution containing 0.10% (w/w) SDS (1:100 to 1:1000 dilution). UV-Vis absorbance and fluorescence spectra were recorded using a Shimadzu 2501 Spectrophotometer (Shimadzu) and a Quantamaster Master 4 L-format scanning spectrofluorometer (Photon Technologies International). The fluorometer is equipped with an LPS-220B 75-W xenon lamp and power supply, A-1010B lamp housing with integrated igniter, switchable 814 photon-counting/analog photomultiplier detection unit, and MD5020 motor driver. Samples were measured in 1-cm path length quartz cuvettes (Starna Cells). Relative quantum yields were measured in TBS solution containing 0.10% (w/w) SDS or in CH3OH and referenced to cresyl violet in CH3OH, which has a quantum yield of 0.54.

[3] = tested on: HEK cells; assay: Voltage sensitivity in HEK cells, whole-cell voltage clamp with fluorescence imaging; format: cell-based, Human; settings: for voltage sensitivity, fractional change in fluorescence: 680 nm emission, n=4 cells
Procedure: Functional imaging of BeRST 1 was performed using a 20× objective paired with image capture from the EMCCD camera at a sampling rate of 0.5 kHz. BeRST 1 was excited using the 633 nm LED with an intensity of 6.7 W/cm^2. For initial voltage characterization (see, FIG. 4) emission was collection with the QUAD filter and dichroic (see above). For investigation into voltage sensitivity during excitation cross-talk (see, FIG. 11) BeRST 1 was excited by a 633 nm LED as above and 390 nm light (violet LED, 20 nm bandpass) with an intensity of 3.3 W/cm^2 and emission was collected with a 680/10 nm bandpass emission filter.
(§1) Analysis of voltage sensitivity in HEK cells was performed using custom Matlab routines. Briefly, a region of interest (ROI) was selected automatically based on fluorescence intensity and applied as a mask to all image frames. Fluorescence intensity values were calculated at known baseline and voltage step epochs. For analysis of BeRST 1 voltage responses in neurons, regions of interest encompassing cell bodies were drawn in ImageJ and the mean fluorescence intensity for each frame extracted. The photostability of BeRST 1 allowed for the calculation of ΔF/F values by subtracting a mean background value from all raw fluorescence frames, bypassing the noise amplification which arises from subtracting background for each frame. All example traces were not averaged. For comparisons of action potentials recorded electrophysiologically and optically, imaging traces were analyzed using spike detection algorithms in the Clampfit 10 software (Molecular Devices). For cross-excitation quantification images were background subtracted. ROIs were made by thresholding to the 25% of the maximum pixel intensity to remove non-stained areas. Mean intensity values for stained neurons were calculated.
For whole-cell, voltage clamp recordings in HEK 293T cells were held at −60 mV and 100 ms hyper- and de-polarizing steps applied from −100 to +100 mV in 20 mV increments.

[4] = Spectroscopic studies (absorbance, emission, quantum yield) in vitro; format: physicochemical; settings: for quantum yield (Φfl): referenced to cresyl violet; for emission maximum: aqueous buffer
[5] = tested on: rat hippocampal neurons; assay: Action potential imaging in patch-clamped (current clamp) hippocampal neurons; format: cell-based; settings: 1.8 kHz optical sampling, n=7 cells
Procedure: Hippocampi were dissected from embryonic day 18 Sprague Dawley rats (Charles River Laboratory) in cold sterile HBSS (zero Ca^2+, zero Mg^2+). All dissection products were supplied by Invitrogen, unless otherwise stated. Hippocampal tissue was treated with trypsin (2.5%) for 15 min at 37° C. The tissue was triturated using fire polished Pasteur pipettes, in minimum essential media (MEM) supplemented with 5% fetal bovine serum (FBS; Thermo Scientific), 2% B-27, 2% 1M D-glucose (Fisher Scientific) and 1% glutamax. […]
as §1, with “All example traces were not averaged. For comparisons of action potentials recorded electrophysiologically and optically, imaging traces were analyzed using spike detection algorithms in the Clampfit 10 software (Molecular Devices).” left out, “ROIs were made by thresholding to the 25% of the maximum pixel intensity to remove non-stained areas.” left out, “calculated. […]” for “calculated.”

[6] = tested on: rat hippocampal neurons; assay: Imaging of action potentials evoked by extracellular field stimulation in hippocampal neurons; format: cell-based
Procedure: Hippocampi were dissected from embryonic day 18 Sprague Dawley rats (Charles River Laboratory) in cold sterile HBSS (zero Ca^2+, zero Mg^2+). All dissection products were supplied by Invitrogen, unless otherwise stated. Hippocampal tissue was treated with trypsin (2.5%) for 15 min at 37° C. The tissue was triturated using fire polished Pasteur pipettes, in minimum essential media (MEM) supplemented with 5% fetal bovine serum (FBS; Thermo Scientific), 2% B-27, 2% 1M D-glucose (Fisher Scientific) and 1% glutamax. The dissociated cells were plated onto 12 mm diameter coverslips (Fisher Scientific) pre-treated with PDL (as above) at a density of 30,000-40,000 cells per coverslip in MEM supplemented media (as above). Neurons were maintained at 37° C. in a humidified incubator with 5% CO2. At 3 days in vitro (DIV) half of the MEM supplemented media was removed and replaced with Neurobasal media containing 2% B-27 supplement and 1% glutamax. Transfection of genetic tools was carried out using Lipofectamine 3000 at 7 DIV. Functional imaging was performed on mature neurons 13-20 DIV, except electrophysiological experiments which were performed on 12-15 DIV neurons.
Extracellular field stimulation was delivered by Grass Stimulator connected to a recording chamber containing two platinum electrodes (Warner), with triggering provided through a Digidata 1332A digitizer and pCLAMP 10 software (Molecular Devices). Action potentials were triggered by 1 ms 80 V field potentials delivered at 5 Hz. To prevent recurrent activity the HBS bath solution was supplemented with synaptic blockers 10 μM 2,3-Dioxo-6-nitro-1,2,3, 4-tetrahydrobenzo[f]quinoxaline-7-sulfonamide (NBQX; Santa Cruz Biotechnology) and 25 μM DL-2-Amino-5-phosphonopentanoic acid (APV; Sigma-Aldrich). Functional imaging of BeRST 1 was performed using the EMCCD camera and a 63× objective. BeRST 1 was excited with a 631 nm light (LED; 631 nm, 28 nm bandpass) with an intensity of 127 W/cm^2. Emission from BeRST 1 was collected with a 680/10 nm bandpass emission filter (after passing through a quadruple dichroic mirror (432/38 nm, 509/22 nm, 586/40 nm, 654 nm LP) or for GCaMP6s and ASAP experiments a QUAD filter (quadruple emission filter (430/32 nm, 508/14 nm, 586/30 nm, 708/98 nm) after passing through the quadruple dichroic mirror. Optical sampling rate of BeRST 1 imaging was 0.5-0.53 kHz, except when imaging with ASAP1 (1.25 kHz). Green spectrum genetic tools (GFP, GCaMP6s and ASAP1) were illuminated using 475 nm light (LED; 475 nm, 34 nm bandpass). For functional imaging an intensity of 33 W/cm^2 for GCaMP6s and 200 W/cm^2 for the more weakly fluorescent ASAP1 was used, which is the maximum 475 nm LED intensity for the system. Emission was collected with a 540/50 nm bandpass filter after passing through a 510 nm longpass dichroic. Functional imaging of GCaMP6s and ASAP was performed at 40 Hz and 1.25 kHz, respectively. Images showing cellular morphology were performed by switching to a lower magnification 20× objective in conjunction with either the EMCCD (GCaMP6s/ASAP1) or sCMOS (GFP) camera.
as §1, with “For comparisons of action potentials recorded electrophysiologically and optically, imaging traces were analyzed using spike detection algorithms in the Clampfit 10 software (Molecular Devices). For cross-excitation quantification images were background subtracted. ROIs were made by thresholding to the 25% of the maximum pixel intensity to remove non-stained areas. Mean intensity values for stained neurons were calculated.” left out

[7] = in CH3OH; cited from earlier work
[8] = aqueous buffer (50 mM TBS, pH 7.5, 0.1% SDS)

COc1cc(N(C)C)ccc1/C=C/c1ccc(/C=C/c2ccc(C3=C4C=CC(=[N+](C)C)C=C4[Si](C)(C)c4cc(N(C)C)ccc43)c(S(=O)(=O)[O-])c2)cc1 [BeRST 1, 5-((E)-4-((E)-4-(Dimethylamino)-2-methoxystyryl)styryl)-2-(7-(dimethylamino)-3-(dimethyliminio)-5,5-dimethyl-3,5-dihydrodibenzo[b,e]silin-10-yl)benzenesulfonate]
effect on action potential amplitude, duration, rise time, decay time, cellular capacitance [1]: No difference; also recorded: No statistically significant differences
emission with 390 nm excitation, share of full emission [2]: 35%
emission with 475 nm excitation compared to excitation at 630 nm [2]: ~7%
voltage sensitivity ([3]; HEK cells loaded with 1 μM dye, whole-cell voltage clamp, n=15 cells): approximately 24%±5%
voltage sensitivity, fractional change in fluorescence ([3]; excited at 390 nm (3.3 W/cm^2)): 28 % ΔF/F per 100 mV
voltage sensitivity, fractional change in fluorescence ([3]; excited at 631 nm (6.7 W/cm^2)): 26 % ΔF/F per 100 mV
linearity of fluorescence response to membrane potential ([3]; range spanning ±100 mV): linear
quantum yield (Φfl) ([4]; TBS/SDS aqueous buffer): 0.017
emission maximum [4]: 683 nm
absorbance / excitation centered at [4, 8]: 658 nm
extinction coefficient at the incident irradiation ([4]; at incident irradiation (631 nm BeRST 1, 475 nm VF2.1.Cl)): 150,000
quantum yield (Φfl) ([4]; methanol): 0.022
FWHM duration of action potentials, optical record ([5]; electrophysiological record 1.65±0.15 ms): 1.97 ± 0.14 ms
optical response for action potentials ([5]; current clamp evoked action potentials): approximately 9.5 % ΔF/F
change in fluorescence per action potential ([6]; field stimulation, GFP-expressing cells, n=5 pairs of cells): 8.7±0.8 % ΔF/F
change in fluorescence per action potential ([6]; field stimulation, cells not expressing GFP): approximately 9.2 % ΔF/F
optical response for action potentials ([6]; field stimulation, n=5 cells): 17.8 % ΔF/F
voltage transient for a single evoked action potential ([6]; neuron expressing GCaMP6s and stained with BeRST 1): approximately 15 % ΔF/F
increase in relative fluorescence to evoked train of action potentials ([6]; neurons expressing ASAP1 and stained with BeRST 1, S.E.M., n=4 cells): 15%±2.1%
resolution of individually evoked action potentials in trains ([6]; trains at 5, 10 and 20 Hz): visible in the BeRST 1 channel at all frequencies

cresyl violet
quantum yield of reference standard [7]: 0.54

CN(C)c1ccc2c(c1)[Si](C)(C)C1=CC(=[N+](C)C)C=CC1=C2c1ccccc1S(=O)(=O)[O-] [BR, 2-(7-(Dimethylamino)-3-(dimethyliminio)-5,5-dimethyl-3,5-dihydrodibenzo[b,e]silin-10-yl) benzenesulfonate]
emission with 390 nm excitation, share of full emission [2]: 16%
emission with 475 nm excitation compared to excitation at 630 nm [2]: approximately 1%
quantum yield (Φfl) ([4]; TBS/SDS aqueous buffer): 0.24
emission maximum [4]: 681 nm
absorbance / excitation centered at [4, 8]: 658 nm
extinction coefficient [4, 8]: 150,000 M^−1 cm^−1
quantum yield (Φfl) ([4]; methanol): 0.32
change in absorbance with pH (spirocyclization) ([4]; pH 2.5 to 9): no change in absorbance
absorbance vs. solvent dielectric constant (solvatochromism) ([4]; ε=6 (10% water/dioxane v/v) to ε=71 (90% water/dioxane v/v)): remains unchanged
